The source of these data is patent US20260184692A1, “HETEROCYCLIC COMPOUNDS, PREPARATION METHODS AND USES THEREOF” (InventisBio Co., Ltd., priority 2022, published 2026).

The target of data set [1] is T1, PXR (Homo sapiens, UniProt O75469).
T1 construct: expressed in transfected cells; host or cells: DPX2 cells
T1 sequence (O75469 1-434): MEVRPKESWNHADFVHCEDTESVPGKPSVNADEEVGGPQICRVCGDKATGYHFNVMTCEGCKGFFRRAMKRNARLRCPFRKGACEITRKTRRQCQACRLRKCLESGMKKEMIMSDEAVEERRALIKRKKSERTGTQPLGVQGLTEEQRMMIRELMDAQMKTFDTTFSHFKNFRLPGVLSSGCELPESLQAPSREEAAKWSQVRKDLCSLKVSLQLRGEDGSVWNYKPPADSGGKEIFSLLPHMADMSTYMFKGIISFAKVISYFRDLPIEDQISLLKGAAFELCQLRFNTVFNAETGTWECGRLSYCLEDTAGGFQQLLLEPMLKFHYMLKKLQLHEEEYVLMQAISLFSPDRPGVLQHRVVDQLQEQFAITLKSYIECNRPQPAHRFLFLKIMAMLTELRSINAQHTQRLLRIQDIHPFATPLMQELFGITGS
The experiment in a line: In Vitro PXR Activation Study (DPX2 cells). It counts as cell-based. The following applies: concentration 30 uM, 48 h treatment. The procedure: Prepared the culture medium for DPX2 cells using DPX2 culturing medium supplemented with 10% FBS. Cultivated DPX2 cells in T-75 flasks in a cell culture incubator set at 37 C, 5% CO2, 95% relative humidity. Allowed cells to reach 80-90% confluence before detaching and splitting. Rinsed cultivated cells in T-75 flasks with 5 mL PBS. Aspirate off, add 1.5 mL trypsin, and incubated at 37° C. for approximately 5 minutes or until the cells detach and float. Inactivated trypsin by adding excess serum containing medium. Removed cell suspension to a conical tube and pellet cells by centrifugation at 150×g for 5 minutes. Resuspended cells in seeding medium at a density of 3.2×10^5 cells/mL. Transferred 25 μL to each well of 384-well cell culture plate. Placed plate(s) in incubator and incubate at 37° C. for 24 hours.
Prepared stock solutions of test compounds and inducers in DMSO. Final concentration of DMSO in the treatment group should be 0.1%. Removed the plates from the incubator and directly add 25 μL of the negative control, inducers, or test article solutions. Returned plates to the incubator for 48 hours. […] After 48 h of treatment, the cultures were ready for the determination of quantitation of PXR activation.
The fold-activation mRNA level was determined by the equation: […]

A short description of data set [2]: Mouse PK Assay. It counts as in vivo. The following applies: plasma, male BALB/c mouse.
Data set [3] has as its system HCC1806 Cells. The experiment in a line: HCC1806 Cell Viability Assay (CellTiter-Glo). The class given is cell-based. To be noted: Homo sapiens, 144 h, 6 days incubation, read-out: HCC1806 CTG IC50. The procedure: HCC1806 Cells (ATCC, Cat #CRL-2335) were seeded at a density of 500 cells/well in a 96-well clear bottom plate (Greiner, Cat #655098) in 100 μL of complete media (RPMI1640+10% FBS). One hundred microliter of complete media was added into the blank wells (column 1) for low control. Cells were allowed to adhere to the plate overnight in the incubator at 37° C., 5% CO2. On the following day, 0.5 μL of serially-diluted compounds were added to the cells (columns 2-10) and incubated for 6 days at 37° C., 5% CO2 (final 0.5% DMSO concentration); 0.5 μL of DMSO solution was added into the wells (column 11) for high control. Cell viability was detected according to the CellTiter-Glo Luminescent Cell Viability Assay Kit (Promega, Cat #G7573). Luminescence was recorded on the Tecan Spark plate reader. Inhibition rate (IR) of the tested compounds was determined by the following formula: IR (%)=(1−(RLUcompound−RLUlow control)/(RLUhigh control−RLUlow control))×100%. The IC50 value was calculated using the non-linear regression equation: Y=Bottom+(Top−Bottom)/(1+10^((Log IC50−X)×HillSlope)), where X is Log of compound concentration, Y is percent inhibition (IR (%)), Top and Bottom are plateaus in same units as Y.
In general terms: In ATP-based viability assays light output follows the ATP content of the culture.

The test system of data set [4] is OVCAR3 Cells. The experiment in a line: OVCAR3 Cell Viability Assay (CellTiter-Glo). It counts as cell-based. The following applies: Homo sapiens, OVCAR-3, 144 h, 6 days incubation, read-out: OVCAR3 CTG IC50. In outline:
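Cells seeded at 2000/well in RPMI1640 + 20% FBS + insulin, treated next day with serially diluted compound for 6 days at 37 °C, 5% CO2 (0.5% DMSO final). Viability by CellTiter-Glo luminescence; inhibition normalised to DMSO and blank controls, IC50 from four-parameter fit.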

The nature of data set [5]: Human Plasma Protein Binding Assay (dialysis). It counts as in vitro ADME. To be noted: 1 μM compound, dialysis 6 hr at 37 °C. On the procedure: The plasma protein binding of compounds in human plasma was determined using a dialysis method. The dialysis membrane strips were prepared by soaking them in ultra-pure water for about 1 hr at room temperature, followed by separation and soaking in ethanol:water (20:80 v:v) for about 20 min, and a final rinse with ultra-pure water. Prior to use, the membranes were rinsed and soaked for another 20 min in ultra-pure water.
The blank plasma samples were thawed, centrifuged and verified its pH values. Only the plasma with pH between 7.0-8.0 was used in the experiment. The final concentration of compound in the spiked plasma is 1 μM, with final DMSO<=1%. All samples were prepared in triplicates. The time zero (T0) samples was used for determining the recovery of the compound of interest after dialysis. It was prepared in the same way as other dialysis samples except it was stored at 2-8° C. before LC-MS/MS analysis.
The other spiked plasma samples were loaded onto the dialysis device and incubated at and 37±1° C. with 5% CO2 for 6 hr. At the end of the dialysis, aliquots of samples from the plasma and buffer sides of the dialysis device were taken and processed for LC-MS/MS analysis.
The % Unbound, % Bound, and % Recovery of the compounds were calculated from the peak area ratios of the analyte and internal standard in the plasma and buffer samples as shown in the following equations:
[formula] [formula] [formula] • where [F] is the peak area ratio of analyte/internal standard on the buffer (receiver) side of the membrane; [T] is the peak area ratio of analyte/internal standard on the plasma (donor) side of the membrane; [T0] is the peak area ratio of analyte/internal standard in the plasma sample at time zero.

The target in data set [6] is T2, P450 2C9 (Homo sapiens, UniProt P11712).
T2 construct: incubation with known industry-accepted CYP450 substrates, test articles and microsomes (HLM); from tissue; host or cells: liver microsomes (HLM)
T2 sequence (P11712 whole entry): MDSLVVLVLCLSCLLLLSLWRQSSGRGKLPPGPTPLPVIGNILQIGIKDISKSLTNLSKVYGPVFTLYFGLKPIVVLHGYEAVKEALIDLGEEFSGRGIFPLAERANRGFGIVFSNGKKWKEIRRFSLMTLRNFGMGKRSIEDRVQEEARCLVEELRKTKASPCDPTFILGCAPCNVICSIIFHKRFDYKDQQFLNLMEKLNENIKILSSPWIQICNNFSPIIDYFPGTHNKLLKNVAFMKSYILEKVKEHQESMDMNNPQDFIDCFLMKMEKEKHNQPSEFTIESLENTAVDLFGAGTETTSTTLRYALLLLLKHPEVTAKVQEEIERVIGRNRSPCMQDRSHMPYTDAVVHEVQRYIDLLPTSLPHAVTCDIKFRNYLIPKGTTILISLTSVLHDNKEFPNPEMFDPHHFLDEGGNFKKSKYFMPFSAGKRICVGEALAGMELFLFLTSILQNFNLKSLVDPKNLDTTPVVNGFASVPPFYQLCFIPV
The experiment in a line: In Vitro Cytochrome P450 Inhibition Study. The class given is in vitro ADME. The following applies: human liver microsomes (HLM), test compound 0.137 μM to 10 μM, 10 min at 37 °C. On the procedure: CYP inhibition was evaluated by monitoring corresponding metabolite decrease after incubation with known industry-accepted CYP450 substrates, test articles and microsomes (HLM).
Eight reaction wells with 30 μL of a solution containing 100 mM potassium phosphate, pH 7.4 and 1:3 serial dilutions of the test compound were prepared along with eight wells of 1:3 serial dilutions of Sulfaphenazole (a positive control inhibitor). The assay plates were pre-warmed after 15 μL of probe substrate was added into appropriate wells. Then the reactions were initiated by adding 15 μL of a pre-warmed 8 mM NADPH solution resulting in a final NADPH concentration of 2 mM. The concentrations of test compound ranged from 0.137 μM to 10 μM. A zero time-point control reaction was prepared by adding 135 μL acetonitrile (ACN) containing tolbutamide (200 ng/mL) as internal standard (IS) to 30 μL. of the reaction solution to inactivate the enzymes before adding the probe substrate. A control reaction with no inhibitor was also prepared. After a suitable incubation at 37° C., 10 min, the reactions were terminated by the addition of 135 μL ACN containing IS. The reactions were prepared and analyzed for the metabolite forms of the probe substrate using LC-MS/MS.
(In general: Liver microsomes are a subcellular fraction often used to study metabolism.)

The MRT is a mean duration of stay, worked out from the concentration-time curve. As usually defined, the IC50 is the concentration at which inhibition is half-maximal. With `N#Cc1ccc(N2CC3(CCC4(CC4)CC3)c3cc(NS(=O)(=O)CCO)ccc3C2=O)nc1N1CCC(F)(F)CC1` [Compound 27], the “Induction Fold” value in data set [1] was determined as 1.8x. Further, in data set [2] (IV), the mean residence time (MRT) is 6.2 h. In data set [2] (single oral dose 5 mg/kg, read-out: PO T1/2 (converted)), the half-life was 3.7 h. Moreover, the half-maximal inhibitory concentration (IC50) in data set [3] and in data set [4] was below 200 nM in each case.
By fraction unbound is commonly meant the share of the substance not bound to proteins or other matrix. `COc1ccc(N2CC3(CCC4(CC4)CC3)c3cc(NS(=O)(=O)CCO)ccc3C2=O)nc1N1CCC(F)(F)CC1` [Compound 133]: the “Induction Fold” value in data set [1] is listed as 1.7x. In data set [5], this molecule displayed a fraction unbound at 6 hr, 1 μM of 0.001. Also, the IC50 was above 10000 nM in data set [6] and below 200 nM in data set [4].
